Where “and” joins values, the source holds several entries; their conditions need not be identical. Equal values may be shown once.
Tested on: CA3 pyramidal neurons in hippocampus
Assay: Giant depolarizing potentials (GDPs) current density in CA3 pyramidal neurons, hippocampal slices, whole-cell recordings
Type: cell-based, mice
Conditions: for GDPs current density (normalized): individual cells; for activity at 0.1 µM / activity at 0.3 µM / activity at 1 µM / activity at 3 µM / activity at 10 µM: Mus musculus, Pyramidal neuron, mean, read-out: GDPs current density, Mean (normalized); for block of GDPs in CA3 pyramidal neurons: in words
Source text: FIG. 2. Brain slice (hippocampus) with electrical stimulation and recording
FIG. 3. Normalized GDP current density in CA3 pyramidal neurons in presence of NKCC1 inhibitor
Panel A. Normalized GDP current density in CA3 pyramidal neurons according to the concentration of compound 57 in μM Panel B. Normalized GDP current density in CA3 pyramidal neurons according to the concentration of compound 51 in μM Panel C. Normalized GDP current density in CA3 pyramidal neurons according to the concentration of compound 57 and compound 51 in μM.
51 and 57 were tested to evaluate their basic neuronal intrinsic properties and excitability. Current-clamp whole-cell recordings were performed in CA3 pyramidal neurons in hippocampal slices from P14-15 mice with a bipolar stimulation electrode (FIG. 2).

SMILES | GDPs current density (normalized) (0.1 μM) | GDPs current density (normalized) (0.3 μM) | GDPs current density (normalized) (1 μM) | GDPs current density (normalized) (3 μM) | GDPs current density (normalized) (10 μM) | activity at 0.1 µM (0.1 μM) | activity at 0.3 µM (0.3 μM) | activity at 1 µM (1 μM) | activity at 3 µM (3 μM) | activity at 10 µM (10 μM) | block of GDPs in CA3 pyramidal neurons
CCCCNc1cc(C(=O)O)cc(S(=N)(=O)NC)c1Oc1ccccc1 (stereo not shown) [Compound 51, 3-(butylamino)-5-(methylaminosulfonimidoyl)-4-phenoxy-benzoic acid] | 0.6538 and 1.003 and 0.8458 and 0.6095 and 0.2984 | 0.2304 and 0.3999 and 0.22 and 0.9979 and 1.222 and 0.1863 | 0.2253 and 0.1713 and 0.1814 and 0.3747 and 0.3549 and 0.1282 and 0.4268 | 0.1082 and 0.484 and 0.1443 and 0.1442 and 0.08715 and 0 and 0.175 | 0.1092 and 0 (2×) and 0.04 (2×) and 0.05 | 68.2% | 54.3% | 26.6% | 16.3% | 3.99% | able to block GDPs
CCCCNc1cc(C(=O)O)cc(S(=N)(=O)Nc2ccccc2)c1Oc1ccccc1 (stereo not shown) [Compound 57, 3-(anilinosulfonimidoyl)-5-(butylamino)-4-phenoxy-benzoic acid] | 1.067 and 0.6415 and 0.36 and 0.7716 and 1.279 and 0.8652 and 0.5079 and 0.901 | 0.3666 and 0.448 and 0.5922 and 0.1844 and 0.9957 and 0.5556 and 0.7164 | 0.5108 and 0.3317 and 0.1389 and 0.1288 and 0.09779 and 0.191 and 0.2683 and 0.352 | 0.06999 and 0.4997 and 0.2222 and 0.0431 and 0.2732 and 0.2642 and 0 | 0.06399 and 0.2068 and 0 (3×) | 79.9% | 55.1% | 25.2% | 19.6% | 5.42% | able to block GDPs

Reference: US20260374782A1, “NEW COMPOUNDS, PROCESSES FOR PREPARING THE SAME AND THEIR USE AS DRUGS” (B&A ONCOMEDICAL, priority 2022, published 2026)
